Read-outs that look alike come from different tables or passages of the source.
Tests used:
[1] = molecular target: T1, IKBKB (IKK-β) (Homo sapiens, UniProt O14920); experiment: IKKβ enzyme assay (Z'-LYTE, Invitrogen); assay type: biochemical
T1 construct: purchased Invitrogen (Paisley, UK)
T1 sequence (O14920 1-756): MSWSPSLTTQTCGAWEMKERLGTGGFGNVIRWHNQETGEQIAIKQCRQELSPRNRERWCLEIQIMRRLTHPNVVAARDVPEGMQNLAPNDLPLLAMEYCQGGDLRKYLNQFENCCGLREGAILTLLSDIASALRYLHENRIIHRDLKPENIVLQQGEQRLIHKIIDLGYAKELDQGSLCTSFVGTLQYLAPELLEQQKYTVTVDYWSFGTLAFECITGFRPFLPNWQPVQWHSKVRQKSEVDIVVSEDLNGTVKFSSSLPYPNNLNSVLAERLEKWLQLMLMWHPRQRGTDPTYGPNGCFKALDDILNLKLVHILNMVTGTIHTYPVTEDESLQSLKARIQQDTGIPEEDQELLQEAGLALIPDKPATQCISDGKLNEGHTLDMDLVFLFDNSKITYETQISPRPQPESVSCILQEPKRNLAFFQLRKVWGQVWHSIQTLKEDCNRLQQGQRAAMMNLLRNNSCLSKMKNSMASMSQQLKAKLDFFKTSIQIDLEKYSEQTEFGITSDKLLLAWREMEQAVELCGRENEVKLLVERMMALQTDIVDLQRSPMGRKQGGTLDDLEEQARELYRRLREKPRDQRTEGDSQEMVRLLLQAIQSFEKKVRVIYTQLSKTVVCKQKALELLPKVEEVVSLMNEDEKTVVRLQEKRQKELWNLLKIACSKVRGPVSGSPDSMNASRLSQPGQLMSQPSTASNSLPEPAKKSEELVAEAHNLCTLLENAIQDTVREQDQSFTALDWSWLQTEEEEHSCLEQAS
Procedure: The ability of compounds to inhibit IKK-β kinase activity was measured in an assay performed by Invitrogen (Paisley, UK). The Z′-LYTE™ biochemical assay employs a fluorescence-based, coupled-enzyme format and is based on the differential sensitivity of phosphorylated and non-phosphorylated peptides to proteolytic cleavage. The peptide substrate is labelled with two fluorophores—one at each end—that make up a FRET pair. In the primary reaction, the kinase transfers the gamma-phosphate of ATP to a single serine or threonine residue in a synthetic FRET-peptide. In the secondary reaction, a site-specific protease recognizes and cleaves non-phosphorylated FRET-peptides. Phosphorylation of FRET-peptides suppresses cleavage by the Development Reagent. Cleavage disrupts FRET between the donor (i.e. coumarin) and acceptor (i.e. fluorescein) fluorophores on the FRET-peptide, whereas uncleaved, phosphorylated FRET-peptides maintain FRET. A […] method, which calculates the ratio (the Emission Ratio) of donor emission to acceptor emission after excitation of the donor fluorophore at 400 nm, is used to quantitate reaction progress.
The final 10 μL Kinase Reaction consists of 0.9-8.0 ng IKBKB (IKK-β), 2 μM Ser/Thr 05 Peptide and ATP in 50 mM HEPES pH 7.5, 0.01% BRIJ-35, 10 mM MgCl2, 1 mM EGTA. The assay is performed at an ATP concentration at, or close to the Km. After the 60 minute Kinase Reaction incubation at room temperature, 5 μL of a 1:128 dilution of Development Reagent is added. The assay plate is incubated for a further 60 minutes at room temperature and read on a fluorescence plate reader.
Duplicate data points are generated from a ⅓ log dilution series of a stock solution of test compound in DMSO. Nine dilutions steps are made from a top concentration of 10 μM, and a ‘no compound’ blank is included. Data is collected and analysed using XLfit software from IDBS. The dose response curve is curve fitted to model number 205 (sigmoidal dose-response model). From the curve generated, the concentration giving 50% inhibition is determined and reported.

[2] = test system: THP-1 cells; experiment: LPS-stimulation of THP-1 cells, TNF-α release; assay type: cell-based; details: Homo sapiens, LPS 1 μg/ml, 6 hours, IC50 range, read-out: Inhibitor activity versus THP-1 TNFα release
Procedure: THP-1 cells were plated in 100 μl at a density of 4×10^4 cells/well in V-bottomed 96 well tissue culture treated plates and incubated at 37° C. in 5% CO2 for 16 hours. 2 hours after the addition of the inhibitor in 100 μl of tissue culture media, the cells were stimulated with LPS (E coli strain 005:B5, Sigma) at a final concentration of 1 μg/ml and incubated at 37° C. in 5% CO2 for 6 hours. TNF-α levels were measured from cell-free supernatants by sandwich ELISA (R&D Systems #QTA00B).

[3] = test system: human whole blood; experiment: LPS-stimulation of human whole blood, TNF-α release; assay type: cell-based
Procedure: Whole blood was taken by venous puncture using heparinised vacutainers (Becton Dickinson) and diluted in an equal volume of RPMI1640 tissue culture media (Sigma). 100 μl was plated in V-bottomed 96 well tissue culture treated plates. 2 hours after the addition of the inhibitor in 100 μl of RPMI1640 media, the blood was stimulated with LPS (E coli strain 005:B5, Sigma) at a final concentration of 100 ng/ml and incubated at 37° C. in 5% CO2 for 6 hours. TNF-α levels were measured from cell-free supernatants by sandwich ELISA (R&D Systems #QTA00B). Human heparinised blood (17-IU/ml) was diluted with an equal volume of RPMI-1640 and then sub-aliquoted into 96 well microtitre wells (100 µl/well). Inhibitors of IKKβ that had been serially diluted in RPMI-1640 were added to the wells (100 µl/well) to give a range of final concentrations (5-10000 nM). After incubation for 2 hours at 37° C., TNF[…] production was stimulated for 6 hours at 37° C. by the addition of 10 µl of LPS (E Coli 055:B5) to give a final concentration of 100 ng/ml. Plates were then centrifuged for 3 minutes at 800 g and TNF[…] present in the supernatant then measured, using a QuantiGlo Chemiluminescent ELISA (R&D Systems). The human whole blood assay measures the ability of the compounds to inhibit the LPS stimulated production of TNF alpha in human blood cells mediated by IKKβ in a physiologically relevant setting.

[4] = ATP at or close to Km, IC50 range, read-out: Inhibitor activity versus IKKβ
[5] = LPS 100 ng/ml, 6 hours, IC50 range, read-out: Inhibitor activity versus human whole blood TNFα release
[6] = read-out: Enzyme IC50 (nM) vs IKKβ
[7] = LPS stimulated TNF alpha production, read-out: IC50 in Human whole blood

SMILES	IC50 [1, 4] [nM]	IC50 [2] [nM]	IC50 [3, 5] [nM]	IC50 [1, 6] [nM]	IC50 [3, 7] [nM]
CC(C)(NCc1ccc2cc(-c3cc(C(N)=O)c(NC(N)=O)s3)ccc2c1)C(=O)OC1CCCC1 [Example 7, Cyclopentyl N-({6-[4-carbamoyl-5-(carbamoylamino)-2-thienyl]-2-naphthyl}methyl)-2-methylalaninate]	> 1000	< 500	> 1000		
CC(C)(C)OC(=O)C(C)(C)NCc1cccc(-c2cc(C(N)=O)c(NC(N)=O)s2)c1 [Example 2, tert-Butyl N-{3-[4-carbamoyl-5-(carbamoylamino)-2-thienyl]benzyl}-2-methylalaninate]	< 500	< 500	> 1000		
CC(C)(NCc1cccc(-c2cc(C(N)=O)c(NC(N)=O)s2)c1)C(=O)OC1CCCC1 [Example 1, Cyclopentyl N-{3-[4-carbamoyl-5-(carbamoylamino)-2-thienyl]benzyl}-2-methylalaninate]	< 500	< 500	< 500	132	140
CC(C)(NCc1ccc2cc(-c3cc(C(N)=O)c(NC(N)=O)s3)ccc2c1)C(=O)O [Example 11, N-({6-[4-carbamoyl-5-(carbamoylamino)-2-thienyl]-2-naphthyl}methyl)-2-methylalanine]	< 500				
CC(C)(NCCc1cccc(-c2cc(C(N)=O)c(NC(N)=O)s2)c1)C(=O)O [Example 10, N-(2-{3-[4-carbamoyl-5-(carbamoylamino)-2-thienyl]phenyl}ethyl)-2-methylalanine]	< 500				
NC(=O)Nc1sc(-c2ccccc2)cc1C(N)=O [Compound I, reference compound]				5	489
CC(C)(NCCc1cccc(-c2cc(C(N)=O)c(NC(N)=O)s2)c1)C(=O)OC1CCCC1 [Example 6, Cyclopentyl N-(2-{3-[4-carbamoyl-5-(carbamoylamino)-2-thienyl]phenyl}ethyl)-2-methylalaninate]	500 to 1000	500 to 1000	< 500		
CC(C)(NC(=O)c1cccc(-c2cc(C(N)=O)c(NC(N)=O)s2)c1)C(=O)OC1CCCC1 [Example 3, Cyclopentyl N-{3-[4-carbamoyl-5-(carbamoylamino)-2-thienyl]benzoyl}-2-methylalaninate]	< 500	> 1000	> 1000		
CC(C)(NCc1cccc(-c2cc(C(N)=O)c(NC(N)=O)s2)c1)C(=O)O [Example 8, N-{3-[4-Carbamoyl-5-(carbamoylamino)-2-thienyl]benzyl}-2-methylalanine]	< 500				
CC(C)(NCc1ccc(-c2cc(C(N)=O)c(NC(N)=O)s2)cc1)C(=O)OC1CCCC1 [Example 5, Cyclopentyl N-{4-[4-carbamoyl-5-(carbamoylamino)-2-thienyl]benzyl}-2-methylalaninate]	< 500	> 1000	500 to 1000		
CC(C)(NC(=O)c1cccc(-c2cc(C(N)=O)c(NC(N)=O)s2)c1)C(=O)O [Example 9, N-{3-[4-Carbamoyl-5-(carbamoylamino)-2-thienyl]benzoyl}-2-methylalanine]	< 500				
CCC(CC)(NCc1cccc(-c2cc(C(N)=O)c(NC(N)=O)s2)c1)C(=O)OC1CCCC1 [Example 4, Cyclopentyl 2-({3-[4-carbamoyl-5-(carbamoylamino)-2-thienyl]benzyl}amino)-2-ethylbutanoate]	> 1000	< 500	> 1000		

— patent publication US20110046210A1, “SUBSTITUTED THIOPENECARBOXAMIDES AS IKK-BETA SERINE-, THREONINE-PROTEIN KINASE INHIBITORS” (CHROMA THERAPEUTICS LTD., priority 2008, published 2011)
